These results are taken from patent US12187759B2, “TLR7 agonists” (Primmune Therapeutics, Inc., priority 2019, dated 2025).

Where two headings read alike, the source gives them in different places.

Assay [1] has as its system hPBMCs (Human Peripheral Blood Mononuclear Cells). Briefly: Induction of interferon-α in hPBMCs in vitro. Conditions: for Emax / minimal effective concentration: Homo sapiens, PBMC; for Emax: 24 h, peak IFNα2a as percentage of peak response of standard 2-Amino-7-(cyclopropylmethyl)-9-B-D-xylofuranosyl-7,9-dihydro-1H-purine-6,8-dione, averaged across donors, read-out: IFNrmax, Relative Maximal IFNα2a Production (%); for minimal effective concentration: minimal effective concentration for interferon-α production (generally at least 80 pg/ml above baseline), geometric mean across at least three donors, 24 hours, read-out: Weighted MEC. The format is cell-based. The method, then:
Treatment of hPBMCs with a TLR7 agonist typically induces some production of interferon-α as well as lesser amounts of a variety of other cytokines and chemokines. A typical experiment uses hPBMCs isolated from a healthy donor and placed in replicate cell culture wells; typically 1.0-7.5×10^6 cells are placed in each well. A test compound is added and the cells are cultured for 24 hours at 37° C. in a humidified atmosphere containing 5% CO2 post-addition; untreated controls are included. Secreted interferon-α production is measured using an a multisubtype interferon-α ELISA kit like those from PBL Assay Sciences or specifically as IFNα2a as part of a panel of cytokines and chemokines using luminex methodologies.
The minimal effective concentration (MEC) is the minimum concentration in a dose response curve where a significant increase in interferon-α production (generally at least 80 pg/ml) is observed above baseline. MEC values for each compound are determined for at least three donors. The weighted MEC for each compound is the geometric mean of all individual MECs across all donors. Concentrations tested typically consist of a two-fold dilution series starting at 100 μM. In the calculation of weighted MEC, any individual MEC value greater the highest concentration tested is arbitrarily set to two times the highest concentration tested unless all MECs for a compound exceed this value. The maximal amount of IFNα2a for each donor is determined from dose dependence for each compound.
In order to normalize for variation in each hPBMC preparation, these values are first transformed by expressing as a percentage of peak response measured with a standard (2-Amino-7-(cyclopropylmethyl)-9-B-D-xylofuranosyl-7,9-dihydro-1H-purine-6,8-dione) and then averaging the results across all donors, this average referred to as IFNrmax.
IFNmax is the maximum amount of IFN observed at any concentration across the evaluated concentration range. MEC and IFNmax values for three select compound are shown for three donors (Table 3). The range of tested concentrations were 0.625-5 μM for Imiquimod, 3.125-100 μM for both Compound A and Compound 1, 12.5-100 μM for Compound 2.

A further assay deals with T1, human TLR7 (Homo sapiens, UniProt Q9NYK1).
T1 construct: host or cells: HEK293
T1 sequence (Q9NYK1 27-1049): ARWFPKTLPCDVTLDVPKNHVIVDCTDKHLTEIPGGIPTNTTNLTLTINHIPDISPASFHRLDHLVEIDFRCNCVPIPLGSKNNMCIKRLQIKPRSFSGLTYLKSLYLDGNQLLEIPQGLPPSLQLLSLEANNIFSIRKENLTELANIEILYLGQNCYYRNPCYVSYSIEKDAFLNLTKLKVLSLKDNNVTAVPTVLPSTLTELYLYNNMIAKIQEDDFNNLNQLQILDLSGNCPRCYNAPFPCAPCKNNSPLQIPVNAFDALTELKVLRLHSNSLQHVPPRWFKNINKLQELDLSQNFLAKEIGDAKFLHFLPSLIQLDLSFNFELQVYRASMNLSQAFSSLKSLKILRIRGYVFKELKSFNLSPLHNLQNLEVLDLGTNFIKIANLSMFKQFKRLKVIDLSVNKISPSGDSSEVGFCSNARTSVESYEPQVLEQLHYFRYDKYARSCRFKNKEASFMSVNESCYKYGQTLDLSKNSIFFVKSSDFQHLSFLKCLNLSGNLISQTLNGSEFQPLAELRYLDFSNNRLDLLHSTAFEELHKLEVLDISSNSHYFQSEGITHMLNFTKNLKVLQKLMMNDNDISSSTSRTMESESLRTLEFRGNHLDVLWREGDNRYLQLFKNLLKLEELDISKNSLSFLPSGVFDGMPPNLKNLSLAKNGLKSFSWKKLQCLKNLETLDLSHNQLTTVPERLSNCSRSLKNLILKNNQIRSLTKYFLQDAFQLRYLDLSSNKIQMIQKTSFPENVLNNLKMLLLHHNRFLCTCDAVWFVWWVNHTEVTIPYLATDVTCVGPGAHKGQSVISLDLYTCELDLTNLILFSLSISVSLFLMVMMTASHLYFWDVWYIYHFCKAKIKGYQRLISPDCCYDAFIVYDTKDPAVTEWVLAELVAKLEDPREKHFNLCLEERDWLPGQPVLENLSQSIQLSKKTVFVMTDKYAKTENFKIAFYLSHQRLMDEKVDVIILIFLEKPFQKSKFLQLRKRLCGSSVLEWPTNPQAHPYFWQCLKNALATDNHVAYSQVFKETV
Briefly: TLR7 reporter cell assay (HEK293 cells stably expressing human TLR7 with NF-κB-driven SEAP reporter). The format is cell-based. Conditions: for EC50: fit of SEAP dose response, ymax from 28.5 μM resiquimod. An excerpt: The engagement of TLRs by cognate ligands triggers downstream signaling cascades, leading to the activation of NF-κB and other transcription factors which initiate various immunomodulatory effects. The human embryonic kidney cell line, HEK293, is essentially non-responsive to TLR agonists, but ectopic expression of TLRs in these cells allows cognate agonists to activate endogenous NF-κB. Accordingly, the HEK293-TLR-NF-κB inducible reporter system is used to assay TLR agonists.
HEK293 cell lines stably expressing human TLR7 or TLR8 together with an NF-κB-driven-secreted alkaline phosphatase (SEAP) reporter were invented at InvivoGen (San Diego, California, USA) and used to assess compounds of the present invention for TLR7 and TLR8 agonist activities. Cells were seeded at 2-5×10^4 cells/well in 96 well plates (200 μl/well) and treated with various concentrations of compound (10 μl) for 15-24 hours. SEAP activity was determined by measuring OD at 650 nm; the media used to culture the cell lines contains the reagents required for SEAP detection. The EC50 values in Table 1 are calculated from fitting the dose response of measured SEAP activity for each compound to the following equation: Y=ymax*c^nh/(EC50^nh+c^nh)+blank where Y is the experimentally measured OD650 at concentration c of test article, blank is the observed OD650 in the absence of TLR7 agonist, ymax is the difference between the measured OD650 in the presence of 28.5 μM resiquimod and the blank and values of EC50 and nh are determined by nonlinear least squares analysis. Resiquimod is a known TLR7 and TLR8 agonist.
Compound A is 5-amino-3-((2R,3R,5S)-3-hydroxy-5-((S)-1-hydroxypropyl)tetrahydrofuran-2-yl)thiazolo[4,5-d]pyrimidine-2,7(3H,6H)-dione)

The mark [2] stands for this setting: HEK293, 500 μM compound, SEAP activity (OD 650 nm) relative to 28.5 μM resiquimod, 15-24 hours, read-out: Response at 500 μM Compound as a Percent of Resiquimod Response.
[3] abbreviates: HEK293, read-out: Response at 500 μM Compound as a Percent of Resiquimod Response.

For the compound `CC[C@H](O)[C@@H]1C[C@@H](O)[C@H](n2c(=O)n(C[C@@H](C)O)c3c(=O)[nH]c(N)nc32)O1` (single isomer, unassigned) [Compound 33], in assay [1], the Emax worked out at 143% and the minimal effective concentration was 9.9 µM. Also, the Emax at 500 µM on human TLR7 (setting [2]) worked out at 73%. Further, the EC50 on human TLR7 (15-24 hours) came out at 287 µM.
With `CC[C@H](O)[C@@H]1C[C@@H](O)[C@H](n2c(=O)n(C[C@H](C)O)c3c(=O)[nH]c(N)nc32)O1` (single isomer, unassigned) [Compound 34], in assay [1], the Emax is 272% and the minimal effective concentration stood at 1.6 µM. The Emax at 500 µM at human TLR7 (setting [2]) was 81%. In addition, the EC50 on human TLR7 (15-24 hours) worked out at 137 µM.
For `C=C=Cn1c(=O)n([C@@H]2O[C@H]([C@H](O)CC)C[C@H]2O)c2nc(N)[nH]c(=O)c21` [Compound 3, 2-amino-9-((2R,3R,5S)-3-hydroxy-5-((R)-1-hydroxypropyl)tetrahydrofuran-2-yl)-7-(propa-1,2-dien-1-yl)-7,9-dihydro-1H-purine-6,8-dione], at human TLR7 (setting [3]), the Emax at 500 µM was below 5%.
Regarding `C#CCn1c(=O)n([C@@H]2O[C@H]([C@@H](O)C(F)(F)F)C[C@H]2O)c2nc(N)[nH]c(=O)c21` [Compound 10, 2-Amino-9-((2R,3R,5S)-3-hydroxy-5-((R)-2,2,2-trifluoro-1-hydroxyethyl)tetrahydrofuran-2-yl)-7-(prop-2-yn-1-yl)-7,9-dihydro-1H-purine-6,8-dione], the Emax at 500 µM on human TLR7 (setting [3]) stood at 72%. Further, the EC50 on human TLR7 (15-24 hours) came to 311 µM.
Take `C#CCn1c(=O)n([C@@H]2O[C@H]([C@H](O)C(F)(F)F)C[C@H]2O)c2nc(N)[nH]c(=O)c21` [Compound 11, 2-Amino-9-((2R,3R,5S)-3-hydroxy-5-((S)-2,2,2-trifluoro-1-hydroxyethyl)tetrahydrofuran-2-yl)-7-(prop-2-yn-1-yl)-7,9-dihydro-1H-purine-6,8-dione]: the Emax at 500 µM at human TLR7 (setting [3]) was below 5%.
Consider `C#CCn1c(=O)n([C@@H]2O[C@H]([C@H](O)CC)[C@H](F)[C@H]2O)c2nc(N)[nH]c(=O)c21` [Compound 12, 2-Amino-9-((2R,3S,4R,5R)-4-fluoro-3-hydroxy-5-((R)-1-hydroxypropyl)tetrahydrofuran-2-yl)-7-(prop-2-yn-1-yl)-7,9-dihydro-1H-purine-6,8-dione], for which the Emax at 500 µM at human TLR7 (setting [3]) was 6%. The same compound had an EC50 at human TLR7 (15-24 hours) above 500 µM.
The matching figures for `C#CCn1c(=O)n([C@@H]2O[C@H](C(=O)CC)C[C@H]2O)c2nc(N)[nH]c(=O)c21` [Compound 37, 2-Amino-9-((2R,3R,5S)-3-hydroxy-5-propionyltetrahydrofuran-2-yl)-7-(prop-2-yn-1-yl)-7,9-dihydro-1H-purine-6,8-dione]: 40% and 462 µM.
Take `C#CCn1c(=O)n([C@@H]2O[C@@H](C(=O)CC)C[C@H]2O)c2nc(N)[nH]c(=O)c21` [Compound 38, 2-Amino-9-((2R,3R,5R)-3-hydroxy-5-propionyltetrahydrofuran-2-yl)-7-(prop-2-yn-1-yl)-7,9-dihydro-1H-purine-6,8-dione]: the Emax at 500 µM at human TLR7 (setting [3]) was below 5%.
On to `C#CCn1c(=O)n([C@@H]2O[C@H](CO)[C@@H](F)[C@H]2O)c2nc(N)[nH]c(=O)c21` [Compound B, 2-Amino-9-((2R,3S,4S,5R)-4-fluoro-3-hydroxy-5-(hydroxymethyl)tetrahydrofuran-2-yl)-7-(prop-2-yn-1-yl)-7,9-dihydro-1H-purine-6,8-dione, reference compound], for which, in assay [1], the Emax is 260% and the minimal effective concentration was determined as 17.9 µM.
As to `CC(C)Cn1cnc2c(N)nc3ccccc3c21` [Imiquimod, reference compound], the “Donor 1 MEC” value in assay [1] (Donor 1, interferon-α production) came to 5 µM. Also, in assay [1] (Donor 1, maximum IFN at any concentration of the evaluated range), the “Donor 1 IFNmax” value was determined as 793 pg/mL. Moreover, the “Donor 2 MEC” value in assay [1] (Donor 2, interferon-α production) turned out to be 5 µM. Further, the “Donor 2 IFNmax” value in assay [1] (Donor 2, maximum IFN at any concentration of the evaluated range) came out at 193 pg/mL. In addition, in assay [1] (Donor 3, interferon-α production), the “Donor 3 MEC” value stood at 1.25 µM. Besides, in assay [1] (Donor 3, maximum IFN at any concentration of the evaluated range), the “Donor 3 IFNmax” value came out at 1350 pg/mL.
